Earlier results as cited in patent publication US6376242B1, “Methods and compositions for treating platelet-related disorders using MPL pathway inhibitory agents” (Emory University, priority 1999, dated 2002).

Tested on: megakaryocyte cell line
Conditions: in vitro

N#C/C(=C/c1ccc(O)c(O)c1)C(=O)NCc1ccccc1 [AG-490]
inhibition of proliferation of a megakaryocyte cell line: inhibit proliferation of a megakaryocyte cell line in vitro
